Results published in patent publication US6982348B2, “Aminoethanol derivatives” (Takeda Pharmaceutical Company Limited, priority 2001, dated 2006).

| melting point | Compound |
| --- | --- |
| 186 to 187 °C | O=C(Cc1cccc2ccccc12)N[C@H](Cc1ccc(C(F)(F)F)cc1)[C@@H](O)c1ccc(F)cc1 (racemic) [Example 82, N-((1RS,2SR)-2-(4-fluorophenyl)-2-hydroxy-1-((4-(trifluoromethyl)phenyl)methyl)ethyl)-2-(1-naphthalenyl)acetamide] |
| 102 to 103 °C | CC(C)(C)c1ccc(C[C@@H](NC(=O)c2cccc3c(F)cccc23)[C@@H](O)c2cccc(Cl)c2)cc1 (racemic) [Example 275, N-[(1RS,2SR)-1-(4-tert-butylbenzyl)-2-(3-chlorophenyl)-2-hydroxyethyl]-5-fluoro-1-naphthamide] |
| 197 to 198 °C | O=C(N[C@H](Cc1cnc(C(F)(F)F)s1)[C@@H](O)c1ccc(F)cc1)c1ccc(F)c2ccccc12 (racemic) [Example 169, 4-fluoro-N-[(1RS,2SR)-2-(4-fluorophenyl)-2-hydroxy-1-[[2-(trifluoromethyl)-1,3-thiazol-5-yl]methyl]ethyl]naphthalene-1-carboxamide] |
| 195 to 196 °C | O=Cc1ccccc1-c1ccc([C@H](O)[C@@H](Cc2cccc(OC(F)(F)C(F)F)c2)NC(=O)c2cccc3c2C=CCCC3)cc1 (racemic) [Example 301, N-[(1RS,2SR)-2-(2′-formyl[1,1′-biphenyl]-4-yl)-2-hydroxy-1-[3-(1,1,2,2-tetrafluoroethoxy)benzyl]ethyl]-6,7-dihydro-5H-benzo[a]cycloheptene-1-carboxamide] |
| 147 to 148 °C | O=C(CCc1ccccc1)N[C@H](Cc1ccc(C(F)(F)F)cc1)[C@@H](O)c1ccccc1 (racemic) [Example 175, N-((1RS,2SR)-2-hydroxy-2-phenyl-1-((4-(trifluoromethyl)phenyl)methyl)ethyl)-3-phenylpropanamide] |
| 192 to 193 °C | O=C(N[C@H](Cc1cccc(SC(F)(F)F)c1)[C@@H](O)c1ccc(F)cc1)c1ccc(F)c2ccccc12 (racemic) [Example 269, 4-fluoro-N-((1RS,2SR)-2-(4-fluorophenyl)-2-hydroxy-1-{3-[(trifluoromethyl)thio]benzyl}ethyl)-1-naphthamide] |
| 167 to 168 °C | O=C(N[C@H](Cc1cccc(OC(F)(F)C(F)F)c1)[C@@H](O)c1ccc(-c2ccc(Cl)cc2)cc1)c1cccc2c1C=CCCC2 (racemic) [Example 294, N-[(1RS,2SR)-2-(4′-chloro[1,1′-biphenyl]-4-yl)-2-hydroxy-1-[3-(1,1,2,2-tetrafluoroethoxy)benzyl]ethyl]-6,7-dihydro-5H-benzo[a]cycloheptene-1-carboxamide] |
| 58 °C | CC(C)(C)c1ccc(C(=O)NC(Cc2ccc(C(F)(F)F)cc2)C(O)c2ccc(F)cc2)cc1 (racemic) [Example 19, 4-tert-butyl-N-[2-(4-fluorophenyl)-2-hydroxy-1-[[4-(trifluoromethyl)phenyl]methyl]ethyl]benzamide] |
| 159 to 181 °C | O=C(NC(Cc1ccc(C(F)(F)F)cc1)C(O)c1ccc(F)cc1)c1cccc2ccccc12 (racemic) [Example 1, N-[2-(4-fluorophenyl)-2-hydroxy-1-[[4-(trifluoromethyl)phenyl]methyl]ethyl]-1-naphthalenecarboxamide] |
| 174 to 175 °C | O=C(N[C@H](Cc1ccc(C(F)(F)F)cc1)[C@@H](O)c1ccc(F)cc1)c1ccc2ccccc2c1 (racemic) [Example 63, N-((1RS,2SR)-2-(4-fluorophenyl)-2-hydroxy-1-((4-(trifluoromethyl)phenyl)methyl)ethyl)-2-naphthalenecarboxamide] |
| 176 to 177 °C | O=C(N[C@H](Cc1cccc(OC(F)(F)C(F)F)c1)[C@@H](O)c1ccc(C(=O)N2CCCCC2)cc1)c1cccc2c1C=CCCC2 (racemic) [Example 313, N-[(1RS,2SR)-2-hydroxy-2-[4-(piperidinocarbonyl)phenyl]-1-[3-(1,1,2,2-tetrafluoroethoxy)benzyl]ethyl]-6,7-dihydro-5H-benzo[a]cycloheptene-1-carboxamide] |
| 148 to 149 °C | CC(C)(C)OC(=O)N[C@H](Cc1cccc(C(F)C(C)(C)F)c1)[C@@H](O)c1ccc(F)cc1 (mixture of isomers) [Example 341, tert-butyl N-[(1RS,2SR)-1-[3-(1,2-difluoro-2-methylpropyl)benzyl]-2-(4-fluorophenyl)-2-hydroxyethyl]carbamate] |
| 152 to 153 °C | O=C(CCCCc1ccccc1)N[C@H](Cc1ccc(C(F)(F)F)cc1)[C@@H](O)c1ccc(F)cc1 (racemic) [Example 99, N-((1RS,2SR)-2-(4-fluorophenyl)-2-hydroxy-1-((4-(trifluoromethyl)phenyl)methyl)ethyl)-5-phenylpentanamide] |
| 169 to 170 °C | O=C(NC(Cc1ccc(C(F)(F)F)cc1)C(O)c1ccc(F)cc1)C12CC3CC(CC(C3)C1)C2 (racemic) [Example 15, N-[2-(4-fluorophenyl)-2-hydroxy-1-[[4-(trifluoromethyl)phenyl]methyl]ethyl]adamantane-1-carboxamide] |
| 189 to 191 °C | O=C(N[C@H](Cc1cccc(OC(F)(F)C(F)F)c1)[C@@H](O)c1ccc(-c2ccc(CO)cc2)cc1)c1cccc2c1C=CCCC2 (racemic) [Example 304, N-[(1RS,2SR)-2-[4′-(hydroxymethyl)[1,1′-biphenyl]-4-yl]-2-hydroxy-1-[3-(1,1,2,2-tetrafluoroethoxy)benzyl]ethyl]-6,7-dihydro-5H-benzo[a]cycloheptene-1-carboxamide] |
| 206 to 207 °C | O=C(N[C@H](Cc1ccc(C(F)(F)F)cc1)[C@@H](O)c1ccoc1)c1ccc(F)c2ccccc12 (racemic) [Example 195, 4-fluoro-N-((1RS,2SR)-2-(3-furanyl)-2-hydroxy-1-((4-(trifluoromethyl)phenyl)methyl)ethyl)-1-naphthalenecarboxamide] |
| 176 to 177 °C | CC(=O)O[C@H](c1ccc(F)cc1)[C@H](Cc1cccc(OC(F)(F)C(F)F)c1)NC(=O)c1cccc2c1C=CCCC2 (racemic) [Example 382, (1RS,2SR)-2-[(6,7-dihydro-5H-benzo[a]cyclohepten-1-ylcarbonyl)amino]-1-(4-fluorophenyl)-3-[3-(1,1,2,2-tetrafluoroethoxy)phenyl]propyl acetate] |
| 203 to 204 °C | O=C(N[C@H](Cc1ccc(F)cc1)[C@@H](O)c1ccc(F)cc1)C1CCCCC1 (racemic) [Example 146, N-((1RS,2SR)-2-(4-fluorophenyl)-1-((4-fluorophenyl)methyl)-2-hydroxyethyl)cyclohexanecarboxamide] |
| 153 to 154 °C | O=C(N[C@H](Cc1ccc(C(F)(F)F)cc1)[C@@H](O)c1ccc(F)cc1)c1ccc(/C=C\c2ccccc2Cl)cc1 (racemic) [Example 96, 4-[(Z)-2-(2-chlorophenyl)ethenyl]-N-[(1RS,2SR)-2-(4-fluorophenyl)-2-hydroxy-1-[4-(trifluoromethyl)benzyl]ethyl]benzenecarboxamide] |
| 216 to 217 °C | O=C(NCc1ccccc1)c1ccc([C@H](O)[C@@H](Cc2cccc(OC(F)(F)C(F)F)c2)NC(=O)c2cccc3c2C=CCCC3)cc1 (racemic) [Example 316, N-[(1RS,2SR)-2-[4-[(benzylamino)carbonyl]phenyl]-2-hydroxy-1-[3-(1,1,2,2-tetrafluoroethoxy)benzyl]ethyl]-6,7-dihydro-5H-benzo[a]cycloheptene-1-carboxamide] |
